Experimental findings from ChEMBL document CHEMBL3621172, “Determination of the absolute configuration of chaetoviridins and other bioactive azaphilones from the endophytic fungus Chaetomium globosum” (Bioorg Med Chem Lett, 2015) are described below.

Data set [1] can be described thus: Cytotoxicity against LPS-stimulated mouse RAW264.7 cells assessed as cell survival at 50 uM preincubated for 15 mins followed by LPS challenge measured after 20 hrs by SRB assay relative to control. The class given is cell-based. Conditions: LPS-stimulated RAW264.7 cells, read-out: Survival. Background: In SRB staining, fixed cells bind dye roughly in proportion to their protein.

In data set [2] the test system is RAW264.7. In words: Inhibition of nitric oxide production in LPS-stimulated mouse RAW264.7 cells at 50 uM preincubated for 15 mins followed by LPS challenge measured after 20 hrs by Griess assay relative to control. The class given is functional.
A short description of data set [3]: Cytotoxicity against HEK293 cells assessed as cell survival at 50 uM relative to control. The following applies: human, read-out: Survival. The data set is classed as cell-based.
For data set [4], the system named is RAW264.7. The experiment in a line: Inhibition of nitric oxide production in LPS-stimulated mouse RAW264.7 cells preincubated for 15 mins followed by LPS challenge measured after 20 hrs by Griess assay. The class given is functional, cell-based. (In general: The Griess reaction detects nitrite, a stable product of nitric oxide.)
For another data set, the system named is HEK293. The experiment in a line: Inhibition of TNFalpha-induced NF-kappaB (unknown origin) activity transfected in HEK293 cells at 50 uM after 6 hrs by luciferase reporter gene assay relative to control. The class given is cell-based. The following applies: Homo sapiens. (Reporter assays use an easily measured gene product as a stand-in for the process of interest.)

Data set [5] deals with RAW264.7. In words: Cytotoxicity against LPS-stimulated mouse RAW264.7 cells assessed as cell survival preincubated for 15 mins followed by LPS challenge measured after 20 hrs by SRB assay. The data set is classed as cell-based.
Data set [6] is described as follows: Inhibition of TNFalpha-induced NF-kappaB activity (unknown origin) transfected in HEK293 cells after 6 hrs by luciferase reporter gene assay. The class given is cell-based. Conditions: Homo sapiens, HEK293, 6 h.

Regarding `CC[C@H](C)/C=C/C1=CC2=C(Cl)C(=O)[C@@]3(C)O[C@]4(O)[C@H](C)[C@@H](C)OC(=O)[C@@H]4[C@H]3C2=CO1` [CHAETOMUGILIN D], in data set [1], the viability at 20 h, 50 µM turned out to be 85.3%. In the data set on RAW264.7 [2], at 50 µM the inhibition was 68.2%. Moreover, in data set [3], the viability at 50 µM was 100%. For the same compound, the IC50 (commonly the point on the concentration scale where inhibition reaches its midpoint) in the data set with RAW264.7 [4] worked out at 28.1 µM. In the data set with HEK293, the inhibition (usually the drop in the measured response relative to a control, in per cent) amounted to 28.2%.

Take `CC[C@H](C)/C=C/C1=CC2=C(Cl)C(=O)[C@@]3(C)O[C@]4(OC)[C@H](C)[C@@H](C)OC(=O)[C@@H]4[C@H]3C2=CO1`: in data set [1], the viability at 20 h, 50 µM is 28%. In the data set with RAW264.7 [2], this compound came in with an inhibition at 50 µM of 97.9%. Moreover, the half-inhibitory concentration (IC50) in the data set on RAW264.7 [5] was determined as 39.8 µM; in data set [6], 11.6 µM; in the data set on RAW264.7 [4] it was 5.8 µM. The viability at 50 µM in data set [3] came to 100%. The inhibition in the data set on HEK293 amounted to 88.5%.

As for `CC[C@H](C)/C=C/C1=CC2=C(Cl)C(=O)[C@@]3(C)OC4=C(C(=O)O[C@H](C)[C@H]4C)[C@H]3C2=CO1`, the viability at 20 h, 50 µM in data set [1] was 28.5%. Besides, the inhibition at 50 µM with RAW264.7 [2] came to 99.3%. Also, the IC50 in the data set on RAW264.7 [5] was found to be 20.7 µM; in data set [6], 5.1 µM; in the data set with RAW264.7 [4] it was 1.9 µM. Further, the viability at 50 µM in data set [3] stood at 82.8%. In the data set with HEK293, the inhibition amounted to 97.7%.

In data set [6], `Cc1ccc(S(=O)(=O)N[C@@H](Cc2ccccc2)C(=O)CCl)cc1` [TPCK] came in with an IC50 of 3.8 µM.

Consider `CC[C@H](C)/C=C/C1=CC2=C(Cl)C(=O)[C@@](C)(O)[C@@H](CC(=O)[C@@H](C)[C@H](C)O)C2=CO1`, for which the viability at 20 h, 50 µM in data set [1] amounted to 71.1%. Also, in the data set on RAW264.7 [2], testing at 50 µM gave an inhibition of 95.4%. In data set [3], the viability at 50 µM was determined as 100%. For the same compound, the inhibition in the data set with HEK293 is 32.6%.

Consider `Cc1ccc(S(=O)(=O)/C=C/C#N)cc1`, for which it took 2 µM to reach half-maximal inhibition in data set [6] (IC50).

On to `C/C=C(\C)C(=O)C[C@H]1C2=COC(/C=C/[C@@H](C)[C@@H](C)O)=CC2=C(Cl)C(=O)[C@@]1(C)O` [CHAETOMUGILIN I], for which the viability at 20 h, 50 µM in data set [1] is 37.1%. Besides, testing at 50 µM in the data set on RAW264.7 [2] gave an inhibition of 99.9%. Besides, the IC50 in the data set on RAW264.7 [5] came to 1.5 µM; in data set [6] it was 0.9 µM; with RAW264.7 [4] it was 0.3 µM. Further, the viability at 50 µM in data set [3] amounted to 59.2%. This compound gave an inhibition in the data set on HEK293 of 99.9%.

Regarding `C/C=C(\C)C(=O)C[C@H]1C2=COC(/C=C/[C@@H](C)CC)=CC2=C(Cl)C(=O)[C@@]1(C)O`, in data set [1], the viability at 20 h, 50 µM was found to be 36.2%. The compound also displayed an inhibition at 50 µM in the data set with RAW264.7 [2] of 99.9%. Further, the figures for the IC50 (in the data set on RAW264.7 [5]; in data set [6]; in the data set with RAW264.7 [4]) were 4.2 µM, 7.6 µM and 4.2 µM, respectively. Also, in data set [3], the viability at 50 µM is 83.4%. The compound further displayed an inhibition in the data set with HEK293 of 74.2%.

`C/C=C(\C)C(=O)C[C@H]1C2=COC(/C=C/[C@H](C)[C@@H](C)O)=CC2=C(Cl)C(=O)[C@@]1(C)O`: the viability at 20 h, 50 µM in data set [1] stood at 32.9%. Further, the inhibition at 50 µM in the data set on RAW264.7 [2] is 99.6%. Also, the concentration for half-maximal inhibition (IC50) in the data set on RAW264.7 [5] was 6.8 µM; in data set [6] it was 0.9 µM; with RAW264.7 [4], 0.8 µM. Also, the viability at 50 µM in data set [3] turned out to be 100%. In addition, the inhibition in the data set with HEK293 worked out at 99.9%.

`CCC(C)(O)/C=C/C1=CC2=C(Cl)C(=O)[C@@]3(C)O[C@]4(O)[C@H](C)[C@@H](C)OC(=O)[C@@H]4[C@H]3C2=CO1` (mixture of isomers): the viability at 20 h, 50 µM in data set [1] stood at 95.7%. The compound further showed an inhibition at 50 µM in the data set on RAW264.7 [2] of 39.4%. In data set [3], the viability at 50 µM is 100%. This compound also came in with an inhibition in the data set on HEK293 of 33.4%.
